Values after ≈ are worked out from the molar mass of the structure shown.
The compounds below were run on Vaccinia virus (assay: Antiviral activity against Vaccinia virus infected in human skin fibroblasts primed with interferon and superinduced with cyclohexamide and actinomycin D assessed as inhibition of virus-induced cytopathogenicity). Settings: Orthopoxvirus vaccinia.
Type: functional

Row | SMILES | MIC [µM]
1 | C=CCOc1cn([C@@H]2O[C@H](CO)[C@@H](O)[C@H]2O)c(=O)[nH]c1=O | > 600
2 | Cc1ccc(COc2cn([C@@H]3O[C@H](CO)[C@@H](O)[C@H]3O)c(=O)[nH]c2=O)cc1 | > 600
3 | Nc1ncnc2c1ncn2[C@@H]1O[C@H](CO)[C@@H](O)[C@@H]1O [VIDARABINE] | 26 (≈ 6.95 µg/mL)
4 | O=c1[nH]c(=O)n([C@H]2C[C@H](O)[C@@H](CO)O2)cc1OCc1ccccc1 | > 600
5 | O=c1[nH]c(=O)n([C@H]2C[C@H](O)[C@@H](CO)O2)cc1I [IDOXURIDINE] | 1.4 (≈ 0.496 µg/mL)
6 | C#CCOc1cn([C@H]2C[C@H](O)[C@@H](CO)O2)c(=O)[nH]c1=O | 140 (≈ 39.5 µg/mL)
7 | O=c1[nH]c(=O)n([C@H]2C[C@H](O)[C@@H](CO)O2)cc1O | 40 (≈ 9.77 µg/mL)
8 | O=c1[nH]c(=O)n([C@@H]2O[C@H](CO)[C@@H](O)[C@H]2O)cc1OCc1ccc([N+](=O)[O-])cc1 | > 600
9 | O=c1[nH]c(=O)n([C@H]2C[C@H](O)[C@@H](CO)O2)cc1OCc1ccc([N+](=O)[O-])cc1 | > 520
10 | NC(=O)COc1cn([C@@H]2O[C@H](CO)[C@@H](O)[C@H]2O)c(=O)[nH]c1=O | > 600
11 | O=c1[nH]c(=O)n([C@@H]2O[C@H](CO)[C@@H](O)[C@H]2O)cc1OCc1ccccc1 | > 600
12 | NC(=O)COc1cn([C@H]2C[C@H](O)[C@@H](CO)O2)c(=O)[nH]c1=O | 130 (≈ 39.2 µg/mL)
13 | C=CCOc1cn([C@H]2C[C@H](O)[C@@H](CO)O2)c(=O)[nH]c1=O | 350 (≈ 99.5 µg/mL)

— ChEMBL document CHEMBL3244322, “5-O-Alkylated derivatives of 5-hydroxy-2'-deoxyuridine as potential antiviral agents. Anti-herpes activity of 5-propynyloxy-2'-deoxyuridine” (J Med Chem, 1978)
